Experimental data from PubChem BioAssay AID248 (DTP/NCI, 2004).
Inconclusive results and toxic doses are left out. Rule as the data show it: active = T/C of 150% or more; inactive = T/C below 125%.

Test system: L1210 leukemia ip in BDF1 mice, survival T/C
Test: NCI In Vivo Anticancer Drug Screen. Data for tumor model L1210 Leukemia (intraperitoneal) in B6D2F1 (BDF1) mice
Settings: endpoint: mean survival time, higher = longer survival
How it was run: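 Read-out is survival time, reported as the treated-group measurement over the vehicle-control measurement.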

[1] = dose: 5.0 mg/kg/injection, schedule: Q01DX001 (ip), vehicle: saline
[2] = dose: 10.0 mg/kg/injection, schedule: Q01DX001 (ip), vehicle: saline
[3] = dose: 20.0 mg/kg/injection, schedule: Q01DX001 (ip), vehicle: saline
[4] = dose: 50.0 mg/kg/injection, schedule: Q01DX001 (ip), vehicle: carboxymethylcellulose (CMC)
[5] = dose: 100.0 mg/kg/injection, schedule: Q01DX001 (ip), vehicle: carboxymethylcellulose (CMC)
[6] = dose: 200.0 mg/kg/injection, schedule: Q01DX001 (ip), vehicle: carboxymethylcellulose (CMC)
[7] = dose: 400.0 mg/kg/injection, schedule: Q01DX001 (ip), vehicle: carboxymethylcellulose (CMC)
[8] = dose: 100.0 mg/kg/injection, schedule: Q04DX003 (ip), vehicle: saline
[9] = dose: 100.0 mg/kg/injection, schedule: Q04DX003 (ip), vehicle: Klucel (hydroxypropylcellulose) (HPC)
[10] = dose: 400.0 mg/kg/injection, schedule: Q04DX003 (ip), vehicle: Klucel (hydroxypropylcellulose) (HPC)
[11] = dose: 40.0 mg/kg/injection, schedule: Q01DX001 (ip), vehicle: saline
[12] = dose: 100.0 mg/kg/injection, schedule: Q01DX009 (ip), vehicle: saline with Tween-80

Measured: T/C

CC(=O)Nc1ccc(S(=O)(=O)SC(F)(F)F)cc1
inactive: [1] 97 % of control | [2] 98 % of control | [3] 101 % of control

CCCCCC(=C/c1ccccc1)/C=N/N=C(N)N
inactive: dose: 15.0 mg/kg/injection, schedule: Q01DX Z (ip), vehicle: saline 93 % of control | dose: 30.0 mg/kg/injection, schedule: Q01DX Z (ip), vehicle: saline 104 % of control | dose: 30.0 mg/kg/injection, schedule: Q01DX Z (oral), vehicle: saline 94 % of control | dose: 60.0 mg/kg/injection, schedule: Q01DX Z (ip), vehicle: saline 98 % of control | dose: 60.0 mg/kg/injection, schedule: Q01DX Z (oral), vehicle: saline 90 % of control | dose: 120.0 mg/kg/injection, schedule: Q01DX Z (oral), vehicle: saline 94 % of control

O=S(CCCl)CCCl
inactive: dose: 0.21 mg/kg/injection, schedule: Q04DX003 (ip), vehicle: Klucel (hydroxypropylcellulose) (HPC) 95 % of control | dose: 0.42 mg/kg/injection, schedule: Q04DX003 (ip), vehicle: Klucel (hydroxypropylcellulose) (HPC) 93 % of control | dose: 0.85 mg/kg/injection, schedule: Q04DX003 (ip), vehicle: Klucel (hydroxypropylcellulose) (HPC) 98 % of control | dose: 0.9 mg/kg/injection, schedule: Q01DX009 (ip), vehicle: Klucel (hydroxypropylcellulose) (HPC) 116 % of control | dose: 1.3 mg/kg/injection, schedule: Q01DX009 (ip), vehicle: Klucel (hydroxypropylcellulose) (HPC) 116 % of control | dose: 2.0 mg/kg/injection, schedule: Q04DX003 (ip), vehicle: Klucel (hydroxypropylcellulose) (HPC) 120 % of control | dose: 2.6 mg/kg/injection, schedule: Q04DX003 (ip), vehicle: Klucel (hydroxypropylcellulose) (HPC) 123 % of control | dose: 6.0 mg/kg/injection, schedule: Q04DX003 (ip), vehicle: Klucel (hydroxypropylcellulose) (HPC) 115 % of control | dose: 8.0 mg/kg/injection, schedule: Q01DX009 (ip), vehicle: Klucel (hydroxypropylcellulose) (HPC) 109 % of control | dose: 8.0 mg/kg/injection, schedule: Q04DX003 (ip), vehicle: Klucel (hydroxypropylcellulose) (HPC) 114 % of control | dose: 12.5 mg/kg/injection, schedule: Q04DX003 (ip), vehicle: Klucel (hydroxypropylcellulose) (HPC) 90 % of control | dose: 50.0 mg/kg/injection, schedule: Q04DX003 (ip), vehicle: Klucel (hydroxypropylcellulose) (HPC) 89 % of control

COP(=O)(OC)OC1C(=O)NC(=O)NC1=O
inactive: [4] 98 % of control | [5] 93 % of control | [6] 96 % of control | [7] 96 % of control

CCCCCn1cnc2c(=S)nc[nH]c21
inactive: [4] 92 % of control | [5] 92 % of control | dose: 100.0 mg/kg/injection, schedule: Q01DX009 (ip), vehicle: acetone 93 % of control | [8] 92 % of control | [6] 97 % of control | dose: 200.0 mg/kg/injection, schedule: Q01DX009 (ip), vehicle: acetone 95 % of control | dose: 200.0 mg/kg/injection, schedule: Q04DX003 (ip), vehicle: saline 100 % of control | [7] 90 % of control | dose: 400.0 mg/kg/injection, schedule: Q01DX009 (ip), vehicle: acetone 93 % of control | dose: 400.0 mg/kg/injection, schedule: Q04DX003 (ip), vehicle: saline 103 % of control

CC(=O)Nc1ccc(NC(=O)Nc2ccc(C)cc2[N+](=O)[O-])cc1
inactive: [9] 92 % of control | dose: 200.0 mg/kg/injection, schedule: Q04DX003 (ip), vehicle: Klucel (hydroxypropylcellulose) (HPC) 86 % of control | [10] 94 % of control

CC(=O)OCC1C(C)CCC1C(C)(C)OC(C)=O (stereo not drawn)
inactive: dose: 25.0 mg/kg/injection, schedule: Q04DX003 (ip), vehicle: saline 95 % of control | dose: 50.0 mg/kg/injection, schedule: Q04DX003 (ip), vehicle: saline 109 % of control | dose: 100.0 mg/kg/injection, schedule: Q01DX001 (ip), vehicle: saline 107 % of control | [8] 98 % of control

[CH3][Sb]1([CH3])([CH3])[O]S(=O)(=O)[O]1
inactive: dose: 75.0 mg/kg/injection, schedule: Q01DX001 (ip), vehicle: saline 97 % of control | dose: 150.0 mg/kg/injection, schedule: Q01DX001 (ip), vehicle: saline 102 % of control | dose: 300.0 mg/kg/injection, schedule: Q01DX001 (ip), vehicle: saline 105 % of control

O=[N+]([O-])c1ccc(C2=CSC3=NCCN23)cc1
inactive: [1] 97 % of control | [2] 95 % of control | [3] 95 % of control | dose: 25.0 mg/kg/injection, schedule: Q01DX009 (ip), vehicle: saline 110 % of control | [11] 97 % of control | dose: 50.0 mg/kg/injection, schedule: Q01DX009 (ip), vehicle: saline 95 % of control

Cc1cc(=S)[nH]c2ccccc12
inactive: dose: 75.0 mg/kg/injection, schedule: Q04DX003 (ip), vehicle: saline 100 % of control | dose: 150.0 mg/kg/injection, schedule: Q04DX003 (ip), vehicle: saline 100 % of control | dose: 300.0 mg/kg/injection, schedule: Q04DX003 (ip), vehicle: saline 100 % of control

CC(C)(C)[N+](Cc1ccccc1)(Cc1ccccc1)Cc1ccccc1
inactive: dose: 100.0 mg/kg/injection, schedule: Q04DX003 (ip), vehicle: saline with Tween-80 100 % of control | dose: 200.0 mg/kg/injection, schedule: Q04DX003 (ip), vehicle: saline with Tween-80 100 % of control | dose: 400.0 mg/kg/injection, schedule: Q04DX003 (ip), vehicle: saline with Tween-80 104 % of control

CCCOP(=O)(N1CC1(C)C)N1CC1(C)C (stereo not drawn)
active: dose: 100.0 mg/kg/injection, schedule: Q04DX002 (ip), vehicle: saline 201 % of control | dose: 200.0 mg/kg/injection, schedule: Q04DX002 (ip), vehicle: saline 155 % of control

O=c1nc2n(CCN(CCO)CCO)c3cc(Cl)c(Cl)cc3nc-2c(=O)[nH]1
inactive: dose: 5.0 mg/kg/injection, schedule: Q01DX009 (ip), vehicle: saline 107 % of control | [2] 95 % of control | dose: 10.0 mg/kg/injection, schedule: Q01DX009 (ip), vehicle: saline 93 % of control | [3] 102 % of control | dose: 20.0 mg/kg/injection, schedule: Q01DX009 (ip), vehicle: saline 104 % of control | [11] 91 % of control

Cc1cc(C)c(O)c(C)c1C
inactive: [12] 104 % of control | dose: 400.0 mg/kg/injection, schedule: Q01DX009 (ip), vehicle: saline with Tween-80 95 % of control

O=C1c2cccc3cc([N+](=O)[O-])cc(c23)C(=O)N1CC1CCCO1 (stereo not drawn)
inactive: dose: 100.0 mg/kg/injection, schedule: Q04DX003 (ip), vehicle: carboxymethylcellulose (CMC) 94 % of control | dose: 200.0 mg/kg/injection, schedule: Q04DX003 (ip), vehicle: carboxymethylcellulose (CMC) 96 % of control | dose: 400.0 mg/kg/injection, schedule: Q04DX003 (ip), vehicle: carboxymethylcellulose (CMC) 107 % of control

c1ccc(Sc2cc(Sc3ccccc3)c3cccccc2-3)cc1
inactive: [5] 96 % of control | [6] 100 % of control | [7] 87 % of control

CCc1c(Nc2ccccc2C)[nH]c(N)nc1=S
inactive: dose: 100.0 mg/kg/injection, schedule: Q01DX Z (ip), vehicle: methylcellulose (MC) 101 % of control | dose: 200.0 mg/kg/injection, schedule: Q01DX Z (ip), vehicle: methylcellulose (MC) 95 % of control

OCC12NC(=S)OC1C(O)C(O)CO2 (stereo not drawn)
inactive: dose: 50.0 mg/kg/injection, schedule: Q01DX009 (ip), vehicle: saline with Tween-80 104 % of control | [12] 104 % of control | dose: 200.0 mg/kg/injection, schedule: Q01DX009 (ip), vehicle: saline with Tween-80 104 % of control

COc1ccc2c(c1)CCC(CC(C)=O)C2=O (stereo not drawn)
inactive: dose: 100.0 mg/kg/injection, schedule: Q04DX003 (ip), vehicle: saline sonified 99 % of control | dose: 200.0 mg/kg/injection, schedule: Q04DX003 (ip), vehicle: saline sonified 90 % of control | dose: 400.0 mg/kg/injection, schedule: Q04DX003 (ip), vehicle: saline sonified 89 % of control

CCCCC/C=C(\CCCCCC)c1ccccc1
inactive: dose: 100.0 mg/kg/injection, schedule: Q01DX001 (ip), vehicle: saline with Tween-80 98 % of control | dose: 200.0 mg/kg/injection, schedule: Q01DX001 (ip), vehicle: saline with Tween-80 95 % of control | dose: 400.0 mg/kg/injection, schedule: Q01DX001 (ip), vehicle: saline with Tween-80 90 % of control

C[N+]1(N[P+](=O)NN2CCCCC2)CCCCC1 (stereo not drawn)
inactive: [5] 98 % of control | [6] 104 % of control

NC(=O)N1Cc2ccccc2CCc2ccccc2C1
inactive: [9] 98 % of control | [10] 91 % of control
